The assay concerns the target T1, Enzyme I C-terminal domain (tEIC) (Caldanaerobacter subterraneus, UniProt Q8R7R4).
T1 construct: gene PtsA; EIC, C-terminal domain (residues 261–575)
The assay is described as follows: 1H-15N TROSY NMR chemical shift perturbation titration. The class given is binding. From the text:
1H-15N TROSY NMR chemical shift perturbation titration on Enzyme I C-terminal domain (tEIC) | both cPEP and SEP induce significant CSPs on the spectra of tEIC localized in the vicinity of the PEP binding site | SEP is particularly interesting as it binds to the thermophilic enzyme with a KD similar to the physiological substrate

SMILES strings stand for the structures. Like-named read-outs stand apart in the source and are kept apart here.

T1 sequence (Q8R7R4 250-573): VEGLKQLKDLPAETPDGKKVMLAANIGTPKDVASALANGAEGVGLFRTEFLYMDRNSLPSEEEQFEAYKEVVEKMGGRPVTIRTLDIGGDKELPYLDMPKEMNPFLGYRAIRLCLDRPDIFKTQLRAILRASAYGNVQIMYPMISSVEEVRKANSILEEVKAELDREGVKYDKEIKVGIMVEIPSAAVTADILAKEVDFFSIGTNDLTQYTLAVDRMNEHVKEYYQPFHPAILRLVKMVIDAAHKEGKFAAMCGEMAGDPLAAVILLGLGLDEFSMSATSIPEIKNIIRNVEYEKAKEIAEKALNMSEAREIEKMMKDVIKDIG

In general, Kd refers to the free concentration of one partner at which half of the binding sites on the other are occupied at equilibrium, for simple one-to-one binding. On to `C=C(CP(=O)(O)O)C(=O)O` [cPEP, allylicphosphonate], for which the Kd was 2.8 mM.

As for `C=C(OS(=O)(=O)O)C(=O)O` [SEP, sulfoenolpyruvate], the Kd (read-out: Kd) is 0.6 mM.
